Values of other authors as cited in US7884104B2, “Aminopiperidines as dipeptidyl peptidase-IV inhibitors for the treatment or prevention of diabetes” (Merck Sharp & Dohme Corp., priority 2004, dated 2011).
One block for each molecule: values may come before it.

Experiments:
cardiac allograft = settings: rats; doubled from day 7 to day 14
hematopoiesis = settings: mouse, cyclophosphamide-induced neutropenia
DPP-IV = target: T1, DPP-IV (Homo sapiens, UniProt P27487)
T1 construct: GRF is rapidly degraded in plasma to GRF[344]; host or cells: plasma (endogenous enzyme activity)
T1 sequence (P27487 39-766 limits assumed, species assumed): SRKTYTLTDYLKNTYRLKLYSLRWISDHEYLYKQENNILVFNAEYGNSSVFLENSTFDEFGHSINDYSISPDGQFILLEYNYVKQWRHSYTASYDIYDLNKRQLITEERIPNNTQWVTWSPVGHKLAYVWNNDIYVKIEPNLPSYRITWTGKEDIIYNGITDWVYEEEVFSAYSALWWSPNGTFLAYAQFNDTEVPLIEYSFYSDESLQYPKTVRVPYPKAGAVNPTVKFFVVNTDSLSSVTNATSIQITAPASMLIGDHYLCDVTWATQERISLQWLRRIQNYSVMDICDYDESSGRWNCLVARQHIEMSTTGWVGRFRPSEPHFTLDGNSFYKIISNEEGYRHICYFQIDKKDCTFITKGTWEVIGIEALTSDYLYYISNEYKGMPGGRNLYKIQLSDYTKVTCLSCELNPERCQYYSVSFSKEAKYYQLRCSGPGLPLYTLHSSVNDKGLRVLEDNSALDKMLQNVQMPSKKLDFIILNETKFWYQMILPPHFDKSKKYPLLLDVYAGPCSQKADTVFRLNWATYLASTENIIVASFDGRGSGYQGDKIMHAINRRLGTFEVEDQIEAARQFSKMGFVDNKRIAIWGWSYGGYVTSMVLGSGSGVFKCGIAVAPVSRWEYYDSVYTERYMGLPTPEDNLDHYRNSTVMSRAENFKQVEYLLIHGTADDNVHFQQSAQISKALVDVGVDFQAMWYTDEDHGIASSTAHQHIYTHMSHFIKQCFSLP

Molecule: CC(C)N1CCC(c2ccccc2)(c2ccccc2)CC1 [Prodipine, Pro-Pro-diphenyl-phosphonate]
cardiac allograft survival (cardiac allograft): 14 day

Molecule: CC(C)[C@H](N)C(=O)N1CCC[C@H]1B(O)O [Val-Boro-Pro]
effect on hematopoiesis (hematopoiesis): stimulated hematopoiesis

effect on degradation of GRF in plasma (DPP-IV): prevented
Molecule: diprotin A
